Test results as given in PMC3678025, “Structure of the Tubulin/FtsZ-Like Protein TubZ from Pseudomonas Bacteriophage ΦKZ” (Journal of Molecular Biology, 2013).

Legend:
ΦKZ TubZ-His6 = molecular target: T1, ΦKZ TubZ-His6 (Pseudomonas phage phiKZ, UniProt Q8SDC3); assay: X-ray crystal structure; assay type: binding; conditions: 2.0 Å monomer (GDP retained through purification, 150 mM Tris-Cl pH 8.0) and 1.7 Å protofilament (crystallised with GTPγS, pH 5.5); GTPase active site
T1 construct: gene PHIKZ039; used for crystallography
T1 sequence (Q8SDC3 whole entry): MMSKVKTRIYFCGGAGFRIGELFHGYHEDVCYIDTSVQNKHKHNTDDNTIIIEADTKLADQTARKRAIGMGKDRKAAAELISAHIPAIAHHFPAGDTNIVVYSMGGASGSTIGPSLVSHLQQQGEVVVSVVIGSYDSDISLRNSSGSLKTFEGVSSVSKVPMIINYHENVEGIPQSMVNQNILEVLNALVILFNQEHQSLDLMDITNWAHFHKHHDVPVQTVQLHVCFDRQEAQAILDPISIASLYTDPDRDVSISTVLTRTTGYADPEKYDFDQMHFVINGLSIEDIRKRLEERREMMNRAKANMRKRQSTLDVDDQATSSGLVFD

Wild-type ΦKZ TubZ = molecular target: T2, Wild-type ΦKZ TubZ (Pseudomonas phage phiKZ, UniProt Q8SDC3); assay: […]° light scattering of polymerisation, electron cryo-microscopy; assay type: biochemical; conditions: 2 μM protein, 20 or 200 μM GTP, 200 mM KCl, 5 mM MgCl2, pH 8.0, 25 °C; induces polymerisation
T2 construct: gene PHIKZ039; used for light scattering and electron microscopy
T2 sequence (Q8SDC3 whole entry): as above

Row | SMILES | X-ray crystal structure (ΦKZ TubZ-His6) | 90° light scattering of polymerisation, electron cryo-microscopy (Wild-type ΦKZ TubZ)
1 | Nc1nc2c(ncn2[C@@H]2O[C@H](COP(=O)(O)OP(=O)(O)O)[C@@H](O)[C@H]2O)c(=O)[nH]1 [GDP] | The GTPase active site within the subunit was occupied by GDP, which was retained | –
2 | Nc1nc2c(ncn2[C@@H]2O[C@H](COP(=O)(O)OP(=O)(O)OP(=O)(O)O)[C@@H](O)[C@H]2O)c(=O)[nH]1 [GTP] | – | ΦKZ TubZ filaments proved extremely dynamic in the presence of GTP
